SMILES strings stand for the structures.

T1 sequence (P10721 26-976): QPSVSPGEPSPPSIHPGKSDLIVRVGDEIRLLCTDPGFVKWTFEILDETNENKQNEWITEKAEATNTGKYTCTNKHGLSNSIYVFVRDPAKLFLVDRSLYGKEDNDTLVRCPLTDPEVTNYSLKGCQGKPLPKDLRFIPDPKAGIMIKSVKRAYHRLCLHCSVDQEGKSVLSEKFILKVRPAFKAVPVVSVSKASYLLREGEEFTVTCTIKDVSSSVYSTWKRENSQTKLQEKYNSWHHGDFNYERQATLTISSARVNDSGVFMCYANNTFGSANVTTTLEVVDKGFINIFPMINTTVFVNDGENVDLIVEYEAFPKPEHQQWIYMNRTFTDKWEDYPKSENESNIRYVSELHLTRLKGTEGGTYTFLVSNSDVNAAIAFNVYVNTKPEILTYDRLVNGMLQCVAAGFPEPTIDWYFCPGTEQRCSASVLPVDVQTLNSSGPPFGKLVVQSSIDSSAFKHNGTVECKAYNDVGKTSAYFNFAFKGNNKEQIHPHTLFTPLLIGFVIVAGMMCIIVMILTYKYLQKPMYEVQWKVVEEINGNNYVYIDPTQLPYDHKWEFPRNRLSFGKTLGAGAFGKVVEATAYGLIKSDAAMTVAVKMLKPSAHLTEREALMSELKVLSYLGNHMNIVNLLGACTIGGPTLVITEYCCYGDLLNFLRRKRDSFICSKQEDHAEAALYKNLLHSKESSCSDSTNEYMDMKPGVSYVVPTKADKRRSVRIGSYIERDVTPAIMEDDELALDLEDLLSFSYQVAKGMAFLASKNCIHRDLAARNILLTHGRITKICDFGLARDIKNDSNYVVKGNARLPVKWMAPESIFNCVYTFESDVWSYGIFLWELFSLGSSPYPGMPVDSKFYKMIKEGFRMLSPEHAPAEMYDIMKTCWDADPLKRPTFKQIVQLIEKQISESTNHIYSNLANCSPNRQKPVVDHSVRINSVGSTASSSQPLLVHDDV

The first experiment addresses T1, c-kit (Homo sapiens, UniProt P10721).
T1 construct: MO7e (human megakaryocytic leukemia cell line) which had been arrested for 20 hr; endogenous in cells; host or cells: MO7e human megakaryocytic leukemia cell line
The experiment in a line: Inhibitory activity against c-kit autophosphorylation (MO7e cells, h-SCF). It is filed as cell-based. Particulars: MO7e cells, h-SCF stimulation; read-out: c-kit IC50. The gist of the method:
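In this cellular autophosphorylation assay, compound-treated MO7e cells (1 hr) were challenged with human stem cell factor at 50 ng/ml for 5 min; detection relied on PY-20 capture and anti-c-kit/HRP immunodetection at 450 nm.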
The IC50 is the concentration that inhibits the measured activity by half. In the case of `COc1cc2nccc(Oc3ccc(NC(=S)NC(=O)c4cccc(F)c4)cc3)c2cc1OC` [Example 931, N-{4-[(6,7-Dimethoxy-4-quinolyl)oxy]phenyl}-N′-(3-fluorobenzoyl)thiourea], the IC50 turned out to be 516 nM.

In the case of `COc1cc2nccc(Oc3ccc(NC(=S)NC(=O)c4cccc(Cl)c4)cc3)c2cc1OC` [Example 932, N-(3-Chlorobenzoyl)-N′-{4-[(6,7-dimethoxy-4-quinolyl)oxy]phenyl}thiourea], the concentration for half-maximal inhibition (IC50) was found to be 208 nM.

For `COc1cccc(C(=O)NC(=S)Nc2ccc(Oc3ccnc4cc(OC)c(OC)cc34)cc2)c1` [Example 933, N-{4-[(6,7-Dimethoxy-4-quinolyl)oxy]phenyl}-N′-(3-methoxybenzoyl)thiourea], the IC50 stood at 493 nM.

In the case of `COc1cc2nccc(Oc3ccc(NC(=S)NC(=O)c4cccc(C(F)(F)F)c4)cc3)c2cc1OC` [Example 934, N-{4-[(6,7-Dimethoxy-4-quinolyl)oxy]phenyl}-N′-[3-(trifluoromethyl)benzoyl]thiourea], the IC50 came to 143 nM.

For `COc1cc2nccc(Oc3ccc(NC(=S)NC(=O)c4cccc(Br)c4)cc3)c2cc1OC` [Example 935, N-(3-Bromobenzoyl)-N′-{4-[(6,7-dimethoxy-4-quinolyl)oxy]phenyl}thiourea], the concentration for half-maximal inhibition (IC50) worked out at 166 nM.

Turning to `COc1cc2nccc(Oc3ccc(NC(=S)NC(=O)c4cccc(C)c4)c(F)c3)c2cc1OC` [Example 936, N-{4-[(6,7-Dimethoxy-4-quinolyl)oxy]-2-fluorophenyl}-N′-(3-methylbenzoyl)thiourea], the IC50 is 427 nM.

`COc1cc2nccc(Oc3ccc(NC(=S)NC(=O)c4cccc(F)c4)c(F)c3)c2cc1OC` [Example 937, N-{4-[(6,7-Dimethoxy-4-quinolyl)oxy]-2-fluorophenyl}-N′-(3-fluorobenzoyl)thiourea]: the IC50 was 819 nM.

Take `COc1cc2nccc(Oc3ccc(NC(=S)NC(=O)c4cccc(Cl)c4)c(F)c3)c2cc1OC` [Example 938, N-(3-Chlorobenzoyl)-N′-{4-[(6,7-dimethoxy-4-quinolyl)oxy]-2-fluorophenyl}thiourea]: the IC50 turned out to be 532 nM.

With `COc1cccc(C(=O)NC(=S)Nc2ccc(Oc3ccnc4cc(OC)c(OC)cc34)cc2F)c1` [Example 939, N-{4-[(6,7-Dimethoxy-4-quinolyl)oxy]-2-fluorophenyl}-N′-(3-methoxybenzoyl)thiourea], the half-maximal inhibitory concentration (IC50) turned out to be 220 nM.

With `COc1cc2nccc(Oc3ccc(NC(=S)NC(=O)c4cccc(Br)c4)c(F)c3)c2cc1OC` [Example 940, N-(3-Bromobenzoyl)-N′-{4-[(6,7-dimethoxy-4-quinolyl)oxy]-2-fluorophenyl}thiourea], the IC50 was 292 nM.

Turning to `COc1cc2nccc(Oc3ccc(NC(=S)NC(=O)c4cccc(C)c4)cc3F)c2cc1OC` [Example 941, N-{4-[(6,7-Dimethoxy-4-quinolyl)oxy]-3-fluorophenyl}-N′-(3-methylbenzoyl)thiourea], the IC50 is 145 nM.

Take `COc1cc2nccc(Oc3ccc(NC(=S)NC(=O)c4cccc(F)c4)cc3F)c2cc1OC` [Example 942, N-{4-[(6,7-Dimethoxy-4-quinolyl)oxy]-3-fluorophenyl}-N′-(3-fluorobenzoyl)thiourea]: the IC50 was 335 nM.

Consider `COc1cc2nccc(Oc3ccc(NC(=S)NC(=O)c4cccc(Cl)c4)cc3F)c2cc1OC` [Example 943, N-(3-Chlorobenzoyl)-N′-{4-[(6,7-dimethoxy-4-quinolyl)oxy]-3-fluorophenyl}thiourea], for which the concentration for half-maximal inhibition (IC50) worked out at 136 nM.

In the case of `COc1cccc(C(=O)NC(=S)Nc2ccc(Oc3ccnc4cc(OC)c(OC)cc34)c(F)c2)c1` [Example 944, N-{4-[(6,7-Dimethoxy-4-quinolyl)oxy]3-fluorophenyl}-N′-(3-methoxybenzoyl)thiourea], the IC50 amounted to 140 nM.

As for `COc1cc2nccc(Oc3ccc(NC(=S)NC(=O)c4cccc(C(F)(F)F)c4)cc3F)c2cc1OC` [Example 945, N-{4-[(6,7-Dimethoxy-4-quinolyl)oxy]-3-fluorophenyl}-N′-[3-(trifluoromethyl)benzoyl]thiourea], the IC50 is 131 nM.

Take `COc1cc2nccc(Oc3ccc(NC(=S)NC(=O)c4cccc(Br)c4)cc3F)c2cc1OC` [Example 946, N-(3-Bromobenzoyl)-N′-{4-[(6,7-dimethoxy-4-quinolyl)oxy]-3-fluorophenyl}thiourea]: the IC50 stood at 142 nM.

With `COc1cc2nccc(Oc3ccc(NC(=S)NC(=O)c4cccc(C)c4)cc3Cl)c2cc1OC` [Example 947, N-{3-Chloro-4-[(67-dimethoxy-4-quinolyl)oxy]phenyl}-N′-(3-methylbenzoyl)thiourea], the IC50 was 375 nM.

As for `COc1cc2nccc(Oc3ccc(NC(=S)NC(=O)c4cccc(F)c4)cc3Cl)c2cc1OC` [Example 948, N-{3-Chloro-4-[(67-dimethoxy-4-quinolyl)oxy]phenyl}-N′-(3-fluorobenzoyl)thiourea], the IC50 is 830 nM.

For `COc1cc2nccc(Oc3ccc(NC(=S)NC(=O)c4cccc(Cl)c4)cc3Cl)c2cc1OC` [Example 949], the IC50 was 250 nM.

In the case of `COc1cccc(C(=O)NC(=S)Nc2ccc(Oc3ccnc4cc(OC)c(OC)cc34)c(Cl)c2)c1` [Example 950, N-{3-Chloro-4-[(6,7-dimethoxy-4-quinolyl)oxy]phenyl}-N′-(3-methoxybenzoyl)thiourea], the 50% inhibitory concentration (IC50) came out at 224 nM.

As for `COc1cc2nccc(Oc3ccc(NC(=S)NC(=O)c4cccc(C(F)(F)F)c4)cc3Cl)c2cc1OC` [Example 951, N-{3-Chloro-4-[(6,7-dimethoxy-4-quinolyl)oxy]phenyl}-N′-[3-(trifluoromethyl)benzoyl]-thiourea], the half-maximal inhibitory concentration (IC50) was 124 nM.

On to `COc1cc2nccc(Oc3ccc(NC(=S)NC(=O)c4cccc(Br)c4)cc3Cl)c2cc1OC` [Example 952, N-(3-Bromobenzoyl)-N′-{3-chloro-4-[(6,7-dimethoxy-4-quinolyl)oxy]phenyl}thiourea], for which the IC50 came out at 317 nM.

For the compound `COc1cc2ncnc(Oc3ccc(NC(=S)NC(=O)c4cccc(C)c4)cc3)c2cc1OC` [Example 954, N-{4-[(6,7-Dimethoxy-4-quinazolinyl)-oxy]phenyl}-N′-(3-methylbenzoyl)thiourea], the IC50 is 131 nM.

For the compound `COc1cc2ncnc(Oc3ccc(NC(=S)NC(=O)c4cccc(Cl)c4)cc3)c2cc1OC` [Example 955, N-(3-Chlorobenzoyl)-N′-{4-[(6,7-dimethoxy-4-quinazolinyl)oxy]phenyl}thiourea], the half-maximal inhibitory concentration (IC50) was 251 nM.

For `COc1cccc(C(=O)NC(=S)Nc2ccc(Oc3ncnc4cc(OC)c(OC)cc34)cc2)c1` [Example 956, N-{4-[(6,7-Dimethoxy-4-quinazolinyl)oxy]phenyl}-N′-(3-methoxybenzoyl)thiourea], the IC50 came out at 326 nM.

For `COc1cc2ncnc(Oc3ccc(NC(=S)NC(=O)c4cccc(C(F)(F)F)c4)cc3)c2cc1OC` [Example 957, N-{4-[(6,7-Dimethoxy-4-quinazolinyl)oxy]phenyl}-N′-[3-(trifluoromethyl)benzoyl]thiourea], the half-inhibitory concentration (IC50) is 136 nM.

The same experiment, now with this note: Mo7e, figure in parentheses in −( ); at 1000 nM.
As a reminder, the inhibition is the relative decrease from the control value, in per cent. Regarding `COc1cc2ncnc(Oc3ccc(NC(=S)NC(=O)c4ccccc4OC)cc3)c2cc1OC` [Example 929, N-{4-[(6,7-Dimethoxy-4-quinazolinyl)oxy]phenyl}-N′-(2-methoxybenzoyl)thiourea], the inhibition at 1 µM was 21%.

Turning to `COc1cc2nccc(Oc3ccc(NC(=S)NC(=O)c4cccc(C)c4)c([N+](=O)[O-])c3)c2cc1OC` [Example 953, N-{4-[(6,7-Dimethoxy-4-quinolyl)oxy]-2-nitrophenyl}-N′-(3-methylbenzoyl)thiourea], the inhibition at 1 µM is 32%.

Values taken from patent publication US7135466B2 (Kirin Beer Kabushiki Kaisha, priority 1999, dated 2006).
